Assay results: patent US4435583A, “2-Halo-substituted monic acid A useful as antibacterial compounds” (Beecham Group p.l.c., priority 1981, dated 1984)
In brackets after ≈: the same amount, converted by molar mass.

Key:
Type in all cases: cell-based
M. pneumoniae ATCC 15492 = assay: In vitro anti-mycoplasmal MIC; conditions: Mycoplasmoides pneumoniae, ATCC15492, 144 h, Friis broth, 0.9% agarose, 6 days, 37° C., read-out: MIC
M. hyorhinis ATCC 25021 = assay: In vitro anti-mycoplasmal MIC; conditions: Mesomycoplasma hyorhinis, ATCC25021, 144 h, Friis broth, 0.9% agarose, 6 days, 37° C.
M. suipneumoniae JF435 = assay: In vitro anti-mycoplasmal MIC; conditions: Friis broth, 0.9% agarose, 6 days, 37° C.
[1] = test system: M. hyosynoviae ATCC 25591; assay: In vitro anti-mycoplasmal MIC; conditions: 144 h, Friis broth, 0.9% agarose, 6 days, 37° C.
Bacillus subtilis 6633 = assay: MIC against human bacteria; conditions: nutrient agar, 5% chocolated horse blood, 18 hours, 37° C.
Procedure: (§1) The values were determined by serial dilutions in nutrient agar with 5% chocolated horse blood after incubations for 18 hours at 37° C.

Staph. aureus W2827 = assay: MIC against human bacteria; conditions: nutrient agar, 5% chocolated horse blood, 18 hours, 37° C.
Procedure: as §1

[2] = test system: Strep. pyrogenes R80/421-A; assay: MIC against human bacteria; conditions: nutrient agar, 5% chocolated horse blood, 18 hours, 37° C.
Procedure: as §1

K. aerogenes A = assay: MIC against human bacteria; conditions: Klebsiella aerogenes, nutrient agar, 5% chocolated horse blood, 18 hours, 37° C., read-out: MIC
Procedure: as §1

P. mirabilis 889 = assay: MIC against human bacteria; conditions: Proteus mirabilis, nutrient agar, 5% chocolated horse blood, 18 hours, 37° C., read-out: MIC
Procedure: as §1

Strep. pneumoniae CN33 = assay: MIC against human bacteria; conditions: nutrient agar, 5% chocolated horse blood, 18 hours, 37° C.
Procedure: as §1

[3] = test system: Haemophilus influenzae Q1; assay: MIC against human bacteria; conditions: Haemophilus influenzae, Q1, 18 h, nutrient agar, 5% chocolated horse blood, 37° C.
Procedure: as §1

[4] = test system: Corynebacterium xerosis 9755; assay: MIC against human bacteria; conditions: nutrient agar, 5% chocolated horse blood, 18 hours, 37° C., read-out: MIC
Procedure: as §1

S. dublin S7 = assay: MIC against veterinary bacteria; conditions: Salmonella enterica, Diagnostic Sensitivity Test Agar, 18 hours, 37° C., read-out: MIC
Procedure: (§2) The values were determined using a two fold serial dilutions in Diagnostic Sensitivity Test Agar with an inoculum of 10^4 organisms and incubation for 18 hours at 37° C.

Staph. aureus B4 = assay: MIC against veterinary bacteria; conditions: Diagnostic Sensitivity Test Agar, 18 hours, 37° C.
Procedure: as §2

Strep. agalactiae SPA1 = assay: MIC against veterinary bacteria; conditions: Diagnostic Sensitivity Test Agar, 18 hours, 37° C.
Procedure: as §2

[5] = test system: Strep. suis (group D) SPS11; assay: MIC against veterinary bacteria; conditions: Diagnostic Sensitivity Test Agar, 18 hours, 37° C.
Procedure: as §2

Staph. aureus 152 = assay: MIC against veterinary bacteria; conditions: Diagnostic Sensitivity Test Agar, 18 hours, 37° C.
Procedure: as §2

E. coli NCTC 10418 = assay: MIC against veterinary bacteria; conditions: Escherichia coli, NCTC10418, Diagnostic Sensitivity Test Agar, 18 hours, 37° C., read-out: MIC
Procedure: as §2

Staph. aureus Oxford = assay: MIC against veterinary bacteria; conditions: Diagnostic Sensitivity Test Agar, 18 hours, 37° C.
Procedure: as §2

Past. multocida PA1 = assay: MIC against veterinary bacteria; conditions: Diagnostic Sensitivity Test Agar, 18 hours, 37° C.
Procedure: as §2

Strep. uberis SPU1 = assay: MIC against veterinary bacteria; conditions: Strep. uberis SPU1; Diagnostic Sensitivity Test Agar; 18 hours, 37° C.
Procedure: as §2

[6] = test system: Corynebacterium pyogenes CY1; assay: MIC against veterinary bacteria; conditions: Rhodococcus (subgen. Prescottella) equi, Diagnostic Sensitivity Test Agar, 18 hours, 37° C., read-out: MIC
Procedure: as §2

Past. haemolytica PA5 = assay: MIC against veterinary bacteria; conditions: Diagnostic Sensitivity Test Agar, 18 hours, 37° C.
Procedure: as §2

E. coli E1 = assay: MIC against veterinary bacteria; conditions: Escherichia coli, Diagnostic Sensitivity Test Agar, 18 hours, 37° C., read-out: MIC
Procedure: as §2

Past. multocida PA2 = assay: MIC against veterinary bacteria; conditions: Diagnostic Sensitivity Test Agar, 18 hours, 37° C.
Procedure: as §2

Strep. dysgalactiae SPD1 = assay: MIC against veterinary bacteria; conditions: Diagnostic Sensitivity Test Agar, 18 hours, 37° C.
Procedure: as §2

Bord. bronchiseptica B08 = assay: MIC against veterinary bacteria; conditions: Bordetella bronchiseptica, B08, 18 h, Diagnostic Sensitivity Test Agar, 37° C., read-out: MIC
Procedure: as §2

[7] = test system: Erysipelothrix rhusiopathiae NCTC 8163; assay: MIC against veterinary bacteria; conditions: NCTC8163, Diagnostic Sensitivity Test Agar, 18 hours, 37° C., read-out: MIC
Procedure: as §2

S. typhimurium S18 = assay: MIC against veterinary bacteria; conditions: Salmonella enterica, Diagnostic Sensitivity Test Agar, 18 hours, 37° C., read-out: MIC
Procedure: as §2

Bord. bronchiseptica B09 = assay: MIC against veterinary bacteria; conditions: Diagnostic Sensitivity Test Agar, 18 hours, 37° C.
Procedure: as §2

[8] = test system: M. suipneumoniae PW/C/210; assay: In vitro anti-mycoplasmal MIC; conditions: Mesomycoplasma hyopneumoniae, 144 h, Friis broth, 0.9% agarose, 6 days, 37° C.
M. suipneumoniae UCD 1 = assay: In vitro anti-mycoplasmal MIC; conditions: Friis broth, 0.9% agarose, 6 days, 37° C.
M. suipneumoniae LABER = assay: In vitro anti-mycoplasmal MIC; conditions: Mesomycoplasma hyopneumoniae, 144 h, Friis broth, 0.9% agarose, 6 days, 37° C.
M. bovis NCTC 10131 = assay: microbe, parasite or virus in culture; conditions: Mycobacterium tuberculosis variant bovis, NCTC10131, 144 h
M. suipneumoniae HK(2) = assay: In vitro anti-mycoplasmal MIC; conditions: Friis broth, 0.9% agarose, 6 days, 37° C.
M. suipneumoniae MS16 = assay: In vitro anti-mycoplasmal MIC; conditions: Mesomycoplasma hyopneumoniae, MS16, 144 h, Friis broth, 0.9% agarose, 6 days, 37° C.
M. hyorhinis ATCC 23234 = assay: In vitro anti-mycoplasmal MIC; conditions: Mesomycoplasma hyorhinis, ATCC23234, 144 h, Friis broth, 0.9% agarose, 6 days, 37° C.
M. suipneumoniae TAM 6N = assay: In vitro anti-mycoplasmal MIC; conditions: Friis broth, 0.9% agarose, 6 days, 37° C.

## CCOC(=O)C(F)=C(C)CC1OCC(CC2OC2C(C)C(C)O)C(O)C1O [Example 1, Ethyl-4-[5S-(2S,3S-epoxy-5S-hydroxy-4S-methylhexyl)-3R, 4R-dihydroxytetrahydropyran-2S-yl]-2-fluoro-3-methylbut-2(Z)-enoate]
M. pneumoniae ATCC 15492
  MIC: 5 µg/mL (≈ 12.8 µM)
M. hyorhinis ATCC 25021
  MIC: 0.25 µg/mL (≈ 0.64 µM)
M. suipneumoniae JF435
  MIC: 0.5 µg/mL (≈ 1.28 µM)
[1]
  MIC: 0.25 µg/mL (≈ 0.64 µM)
Bacillus subtilis 6633
  MIC: 2.5 µg/mL (≈ 6.4 µM)
Staph. aureus W2827
  MIC: 1.0 µg/mL (≈ 2.56 µM)
[2]
  MIC: 1.0 µg/mL (≈ 2.56 µM)
K. aerogenes A
  MIC: > 100 µg/mL
P. mirabilis 889
  MIC: > 100 µg/mL
Strep. pneumoniae CN33
  MIC: 2.5 µg/mL (≈ 6.4 µM)
[3]
  MIC: 0.1 µg/mL (≈ 0.256 µM)
[4]
  MIC: > 100 µg/mL
S. dublin S7
  MIC: > 80 µg/mL
Staph. aureus B4
  MIC: 0.63 µg/mL (≈ 1.61 µM)
Strep. agalactiae SPA1
  MIC: 2.5 µg/mL (≈ 6.4 µM)
[5]
  MIC: 20.0 µg/mL (≈ 51.2 µM)
Staph. aureus 152
  MIC: 0.63 µg/mL (≈ 1.61 µM)
E. coli NCTC 10418
  MIC: > 80 µg/mL
Staph. aureus Oxford
  MIC: 0.63 µg/mL (≈ 1.61 µM)
Past. multocida PA1
  MIC: 1.3 µg/mL (≈ 3.33 µM)
Strep. uberis SPU1
  MIC: 0.63 µg/mL (≈ 1.61 µM)
[6]
  MIC: 80 µg/mL (≈ 205 µM)
Past. haemolytica PA5
  MIC: 5.0 µg/mL (≈ 12.8 µM)
E. coli E1
  MIC: > 80 µg/mL
Past. multocida PA2
  MIC: 0.63 µg/mL (≈ 1.61 µM)
Strep. dysgalactiae SPD1
  MIC: 1.3 µg/mL (≈ 3.33 µM)
Bord. bronchiseptica B08
  MIC: 80 µg/mL (≈ 205 µM)
[7]
  MIC: 80 µg/mL (≈ 205 µM)
S. typhimurium S18
  MIC: > 80 µg/mL
Bord. bronchiseptica B09
  MIC: 20.0 µg/mL (≈ 51.2 µM)
[8]
  MIC: 0.25 µg/mL (≈ 0.64 µM)
M. suipneumoniae UCD 1
  MIC: 0.5 µg/mL (≈ 1.28 µM)
M. suipneumoniae LABER
  MIC: 0.25 µg/mL (≈ 0.64 µM)
M. bovis NCTC 10131
  MIC: 0.025 µg/mL (≈ 0.064 µM)
M. suipneumoniae HK(2)
  MIC: 0.5 µg/mL (≈ 1.28 µM)
M. suipneumoniae MS16
  MIC: 0.25 µg/mL (≈ 0.64 µM)
M. hyorhinis ATCC 23234
  MIC: 0.25 µg/mL (≈ 0.64 µM)
M. suipneumoniae TAM 6N
  MIC: 0.5 µg/mL (≈ 1.28 µM)
